# According to patent publication US20260193264A1, “BENZOYPARAZINE PYRAZINES AND THEIR USES” (FOGHORN THERAPEUTICS INC., priority 2022, published 2026):
# Experiments:
# [1] = biological target: T1, HiBit-BRG1 fusion protein in stable HeLa cell line expressing HiBit-BRG1 and LgBit (Homo sapiens, UniProt P51532); assay: HiBiT-BRG1 cell-based degradation assay (Nano-Glo HiBiT, 24 h); details: HeLa HiBit-BRG1/LgBit cells; for DC50: read-out: BRMG1 HiBit Degradation IC50; for Dmax: top dose 30 μM, read-out: BRG1 HiBit Degradation Maximum (%)
# T1 construct: expressed in transfected cells
# Experimental: Procedure: A stable HeLa cell line expressing HiBiT-BRM was generated. On day 0, 5000 cells were seeded in 40 μL of media into each well of 384-well cell culture plates. […] Subsequently plates were incubated for 24 h in a standard tissue culture incubator and equilibrated at room temperature for 15 minutes. Nano-Glo HiBiT Lytic Detection System (Promega N3050) reagent was freshly prepared and 20 ul was added to each well. Upon addition of this LgBit-containing reagent, the HiBiT and LgBiT proteins associate to form the luminescent NanoBiT luciferase. The plates were shaken for 10 minutes at room temperature and the bioluminescence read using an EnVision plate reader (PerkinElmer). For measurement of BRG1 degradation, a stable HeLa cell line expressing HiBit-BRG1 and LgBit was generated. The same protocol as above was then followed. The degradation % was calculated using the following formula: % degradation=100%−100%×(Lumsample−LumLC)/(LumHC−LumLC). DMSO treated cells are employed as High Control (HC) and 2 μM of a known BRM/BRG1 degrader standard treated cells are employed as Low Control (LC).
# [2] = biological target: T2, HiBiT-BRM fusion protein in stable HeLa cell line (Homo sapiens, UniProt P51531); assay: HiBiT-BRM cell-based degradation assay (Nano-Glo HiBiT Lytic Detection, 24 h); design: DC50: scale not given here; details: HeLa HiBiT-BRM cells; for DC50: read-out: BRM HiBit Degradation IC50; for BRM HiBit Degradation Maximum (%): top dose 30 μM
# T2 construct: expressed in transfected cells
# Experimental: Procedure: A stable HeLa cell line expressing HiBiT-BRM was generated. On day 0, 5000 cells were seeded in 40 μL of media into each well of 384-well cell culture plates. On day 1, cells were treated with 120 nL DMSO or 120 nL of 3-fold serially DMSO-diluted compounds (10 points in duplicate with 30 μM as final top dose). Subsequently plates were incubated for 24 h in a standard tissue culture incubator and equilibrated at room temperature for 15 minutes. Nano-Glo HiBiT Lytic Detection System (Promega N3050) reagent was freshly prepared and 20 ul was added to each well. Upon addition of this LgBit-containing reagent, the HiBiT and LgBiT proteins associate to form the luminescent NanoBiT luciferase. The plates were shaken for 10 minutes at room temperature and the bioluminescence read using an EnVision plate reader (PerkinElmer).
# The degradation % was calculated using the following formula: % degradation=100%−100%×(Lumsample−LumLC)/(LumHC−LumLC). DMSO treated cells are employed as High Control (HC) and 2 μM of a known BRM/BRG1 degrader standard treated cells are employed as Low Control (LC).
# T1 sequence (P51532 whole entry, the tested form may be a part): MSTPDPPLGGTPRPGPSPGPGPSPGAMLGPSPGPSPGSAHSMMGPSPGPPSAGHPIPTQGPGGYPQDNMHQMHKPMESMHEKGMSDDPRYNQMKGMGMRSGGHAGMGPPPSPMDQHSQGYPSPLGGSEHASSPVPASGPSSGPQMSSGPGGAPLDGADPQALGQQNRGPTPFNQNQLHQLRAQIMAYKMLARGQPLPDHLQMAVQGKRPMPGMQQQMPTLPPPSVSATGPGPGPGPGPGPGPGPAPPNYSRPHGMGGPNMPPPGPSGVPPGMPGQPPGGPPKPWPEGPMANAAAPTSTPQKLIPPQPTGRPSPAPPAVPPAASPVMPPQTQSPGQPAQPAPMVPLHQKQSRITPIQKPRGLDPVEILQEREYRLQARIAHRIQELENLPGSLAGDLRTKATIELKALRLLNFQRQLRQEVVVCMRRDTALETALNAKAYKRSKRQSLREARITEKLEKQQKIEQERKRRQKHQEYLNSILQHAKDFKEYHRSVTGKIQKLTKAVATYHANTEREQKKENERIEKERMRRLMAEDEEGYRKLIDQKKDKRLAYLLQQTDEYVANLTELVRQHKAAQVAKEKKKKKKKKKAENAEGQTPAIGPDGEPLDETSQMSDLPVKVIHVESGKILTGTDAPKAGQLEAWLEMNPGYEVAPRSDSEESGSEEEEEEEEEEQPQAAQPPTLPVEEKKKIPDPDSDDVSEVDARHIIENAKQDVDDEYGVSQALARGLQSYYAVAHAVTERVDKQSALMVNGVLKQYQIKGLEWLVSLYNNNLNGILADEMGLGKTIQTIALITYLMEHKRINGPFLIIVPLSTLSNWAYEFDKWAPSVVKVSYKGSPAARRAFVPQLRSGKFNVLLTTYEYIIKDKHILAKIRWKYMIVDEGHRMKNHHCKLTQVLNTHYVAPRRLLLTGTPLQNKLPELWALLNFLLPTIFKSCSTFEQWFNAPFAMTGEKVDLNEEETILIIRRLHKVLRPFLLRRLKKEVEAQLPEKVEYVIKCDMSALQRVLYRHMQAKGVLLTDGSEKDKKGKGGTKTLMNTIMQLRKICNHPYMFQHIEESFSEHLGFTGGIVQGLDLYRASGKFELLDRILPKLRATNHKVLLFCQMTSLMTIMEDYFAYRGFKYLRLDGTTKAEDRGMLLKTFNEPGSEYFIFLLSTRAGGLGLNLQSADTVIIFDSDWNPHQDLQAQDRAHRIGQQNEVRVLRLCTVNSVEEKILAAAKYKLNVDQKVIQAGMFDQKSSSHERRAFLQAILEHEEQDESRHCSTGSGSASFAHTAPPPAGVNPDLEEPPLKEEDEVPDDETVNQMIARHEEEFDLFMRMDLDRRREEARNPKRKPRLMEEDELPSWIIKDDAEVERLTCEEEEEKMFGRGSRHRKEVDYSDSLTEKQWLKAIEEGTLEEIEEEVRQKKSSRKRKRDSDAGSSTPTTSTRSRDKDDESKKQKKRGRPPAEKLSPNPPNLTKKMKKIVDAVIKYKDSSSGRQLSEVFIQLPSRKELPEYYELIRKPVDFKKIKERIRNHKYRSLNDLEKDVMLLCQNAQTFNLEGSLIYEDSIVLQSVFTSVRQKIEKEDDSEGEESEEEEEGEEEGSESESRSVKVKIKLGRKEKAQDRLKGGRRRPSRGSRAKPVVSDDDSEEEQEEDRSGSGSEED
# T2 sequence (P51531 whole entry, the tested form may be a part): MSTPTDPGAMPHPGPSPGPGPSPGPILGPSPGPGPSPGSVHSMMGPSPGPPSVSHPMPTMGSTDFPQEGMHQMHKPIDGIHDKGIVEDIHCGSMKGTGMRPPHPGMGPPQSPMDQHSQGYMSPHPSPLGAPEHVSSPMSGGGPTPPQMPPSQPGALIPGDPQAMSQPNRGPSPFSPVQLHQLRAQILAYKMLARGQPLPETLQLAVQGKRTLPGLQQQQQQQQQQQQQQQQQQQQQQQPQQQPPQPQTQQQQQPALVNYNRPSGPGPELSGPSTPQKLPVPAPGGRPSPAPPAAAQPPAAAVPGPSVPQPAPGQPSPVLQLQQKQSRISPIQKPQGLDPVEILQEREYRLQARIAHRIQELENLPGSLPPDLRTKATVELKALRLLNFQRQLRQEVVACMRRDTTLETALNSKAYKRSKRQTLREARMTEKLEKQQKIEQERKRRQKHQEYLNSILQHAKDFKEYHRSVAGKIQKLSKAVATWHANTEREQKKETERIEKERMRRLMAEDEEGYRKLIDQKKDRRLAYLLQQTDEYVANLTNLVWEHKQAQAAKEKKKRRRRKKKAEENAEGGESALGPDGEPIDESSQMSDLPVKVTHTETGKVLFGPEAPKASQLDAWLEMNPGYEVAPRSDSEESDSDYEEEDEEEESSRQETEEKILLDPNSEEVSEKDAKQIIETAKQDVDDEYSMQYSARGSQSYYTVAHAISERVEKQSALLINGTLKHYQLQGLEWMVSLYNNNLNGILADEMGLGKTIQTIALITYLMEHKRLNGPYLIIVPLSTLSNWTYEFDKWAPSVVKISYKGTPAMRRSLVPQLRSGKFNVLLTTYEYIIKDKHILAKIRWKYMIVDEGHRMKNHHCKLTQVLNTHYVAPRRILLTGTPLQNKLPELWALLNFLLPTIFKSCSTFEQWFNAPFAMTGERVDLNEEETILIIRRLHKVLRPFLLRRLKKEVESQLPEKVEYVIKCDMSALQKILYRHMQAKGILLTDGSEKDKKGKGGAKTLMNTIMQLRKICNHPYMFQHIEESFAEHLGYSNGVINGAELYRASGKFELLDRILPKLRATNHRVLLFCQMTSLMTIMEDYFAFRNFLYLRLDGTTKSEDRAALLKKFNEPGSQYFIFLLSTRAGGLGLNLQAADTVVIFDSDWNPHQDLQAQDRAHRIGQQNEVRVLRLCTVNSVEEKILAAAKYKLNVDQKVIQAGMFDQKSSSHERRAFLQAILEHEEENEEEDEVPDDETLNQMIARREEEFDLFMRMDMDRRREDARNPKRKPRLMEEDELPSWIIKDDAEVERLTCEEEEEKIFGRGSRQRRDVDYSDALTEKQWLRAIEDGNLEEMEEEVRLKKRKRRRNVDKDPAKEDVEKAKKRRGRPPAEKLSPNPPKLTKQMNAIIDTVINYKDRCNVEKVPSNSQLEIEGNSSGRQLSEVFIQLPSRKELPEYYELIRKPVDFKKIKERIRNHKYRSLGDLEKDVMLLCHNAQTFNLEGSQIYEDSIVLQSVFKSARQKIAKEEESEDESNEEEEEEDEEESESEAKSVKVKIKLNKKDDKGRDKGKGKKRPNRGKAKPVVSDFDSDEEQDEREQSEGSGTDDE
SMILES,DC50 [1] [nM],Dmax [1] [%],DC50 [2] [nM],BRM HiBit Degradation Maximum (%) [2]
"Cc1ncsc1-c1ccc([C@H](C)NC(=O)[C@@H]2C[C@@H](O)CN2C(=O)[C@@H](c2cc(N3CC4(C3)CN(c3cc5nnc(-c6ccccc6O)cc5cc3C(F)F)C4)no2)C(C)C)cc1 [Compound 168, (2S,4R)-1-((R)-2-(3-(6-(6-(difluoromethyl)-3-(2-hydroxyphenyl)cinnolin-7-yl)-2,6-diazaspiro[3.3]heptan-2-yl)isoxazol-5-yl)-3-methylbutanoyl)-4-hydroxy-N-((S)-1-(4-(4-methylthiazol-5-yl)phenyl)ethyl)pyrrolidine-2-carboxamide]",< 10,> 50,< 10,A (“A” indicates maximum degradation ≥75%)
"Cc1ncsc1-c1ccc([C@H](C)NC(=O)[C@@H]2C[C@@H](O)CN2C(=O)[C@@H](c2cccc(N3CC4(C3)CN(c3ccc5cc(-c6ccccc6O)nnc5c3)C4)c2)C(C)C)cc1 [Compound 174, (2S,4R)-4-hydroxy-1-((R)-2-(3-(6-(3-(2-hydroxyphenyl)cinnolin-7-yl)-2,6-diazaspiro[3.3]heptan-2-yl)phenyl)-3-methylbutanoyl)-N—((S)-1-(4-(4-methylthiazol-5-yl)phenyl)ethyl)pyrrolidine-2-carboxamide]",,< 50,> 10,A (“A” indicates maximum degradation ≥75%)
"Cc1ncsc1-c1ccc([C@H](C)NC(=O)[C@@H]2C[C@@H](O)CN2C(=O)[C@@H](c2cc(N3CCOC4(CN(c5ccc6nnc(-c7ccccc7O)cc6c5)C4)C3)no2)C(C)C)cc1 [Compound 146, (2S,4R)-4-hydroxy-1-((R)-2-(3-(2-(3-(2-hydroxyphenyl)cinnolin-6-yl)-5-oxa-2,8-diazaspiro[3.5]nonan-8-yl)isoxazol-5-yl)-3-methylbutanoyl)-N-((S)-1-(4-(4-methylthiazol-5-yl)phenyl)ethyl)pyrrolidine-2-carboxamide]",> 10,> 75,< 10,A (“A” indicates maximum degradation ≥75%)
"Cc1ncsc1-c1ccc([C@H](C)NC(=O)[C@@H]2C[C@@H](O)CN2C(=O)C(C(C)C)n2cc(N3CC4CN(c5ccc6cc(-c7ccccc7O)nnc6c5)CCC43)nn2)cc1 (stereo partly drawn) [Compound 250, (2S,4R)-4-hydroxy-1-(2-(4-(3-(3-(2-hydroxyphenyl)cinnolin-7-yl)-3,7-diazabicyclo[4.2.0]octan-7-yl)-1H-1,2,3-triazol-1-yl)-3-methylbutanoyl)-N-((S)-1-(4-(4-methylthiazol-5-yl)phenyl)ethyl)pyrrolidine-2-carboxamide]",< 10,> 75,< 10,A (“A” indicates maximum degradation ≥75%)
"CC(C)[C@@H](C(=O)N1C[C@H](O)C[C@H]1C(=O)N[C@@H](C)c1ccc(F)cc1)c1cc(N2CC3(C2)CN(c2cc4nnc(-c5ccccc5O)cc4cc2C#N)C3)no1 [Compound 217, (2S,4R)-1-((R)-2-(3-(6-(6-cyano-3-(2-hydroxyphenyl)cinnolin-7-yl)-2,6-diazaspiro[3.3]heptan-2-yl)isoxazol-5-yl)-3-methylbutanoyl)-N-((S)-1-(4-fluorophenyl)ethyl)-4-hydroxypyrrolidine-2-carboxamide]",,< 50,< 10,A (“A” indicates maximum degradation ≥75%)
"Cc1ncsc1-c1ccc([C@H](C)NC(=O)[C@@H]2C[C@@H](O)CN2C(=O)[C@@H](c2cc(N3CC4(CC(c5cc6nnc(-c7ccccc7O)cc6cc5Cl)C4)C3)no2)C(C)C)cc1 [Compound 220, (2S,4R)-1-((R)-2-(3-(6-(6-chloro-3-(2-hydroxyphenyl)cinnolin-7-yl)-2-azaspiro[3.3]heptan-2-yl)isoxazol-5-yl)-3-methylbutanoyl)-4-hydroxy-N-((S)-1-(4-(4-methylthiazol-5-yl)phenyl)ethyl)pyrrolidine-2-carboxamide]",> 10,> 75,< 10,A (“A” indicates maximum degradation ≥75%)
"Cc1ncsc1-c1ccc([C@H](C)NC(=O)[C@@H]2C[C@@H](O)CN2C(=O)[C@@H](c2cc(OCCN3CC(c4ccc5nnc(-c6ccccc6O)cc5c4)C3)no2)C(C)C)cc1 [Compound 1, (2S,4R)-4-hydroxy-1-[(2R)-2-[3-(2-{3-[3-(2-hydroxyphenyl)cinnolin-6-yl]azetidin-1-yl}ethoxy)-1,2-oxazol-5-yl]-3-methylbutanoyl]-N-[(1S)-1-[4-(4-methyl-1,3-thiazol-5-yl)phenyl]ethyl]pyrrolidine-2-carboxamide]",,< 50,> 10,B (“B” indicates maximum degradation ≥50%)
CC(C)[C@@H](C(=O)N1C[C@H](O)C[C@H]1C(=O)N[C@@H](C)c1ccc(F)cc1)c1cc(N2CC3(CC(c4cc5nnc(-c6ccccc6O)cc5cc4C(F)F)C3)C2)no1 [Compound 283],,< 50,< 10,A (“A” indicates maximum degradation ≥75%)
"Cc1ncsc1-c1ccc([C@H](C)NC(=O)[C@@H]2C[C@@H](O)CN2C(=O)[C@@H](c2cc(N3CCC4(CC3)CC(c3ccc5cc(-c6cccc(F)c6O)nnc5c3)C4)no2)C(C)C)cc1 [Compound 94, (2S,4R)-1-((R)-2-(3-(2-(3-(3-fluoro-2-hydroxyphenyl)cinnolin-7-yl)-7-azaspiro[3.5]nonan-7-yl)isoxazol-5-yl)-3-methylbutanoyl)-4-hydroxy-N-((S)-1-(4-(4-methylthiazol-5-yl)phenyl)ethyl)pyrrolidine-2-carboxamide]",,< 50,< 10,A (“A” indicates maximum degradation ≥75%)
"Cc1ncsc1-c1ccc([C@H](C)NC(=O)[C@@H]2C[C@@H](O)CN2C(=O)[C@@H](c2cc(N3CCC4(CC[C@H](c5ccc6nnc(-c7ccccc7O)cc6c5)C4)CC3)no2)C(C)C)cc1 [Compound 75, (2S,4R)-4-hydroxy-1-((R)-2-(3-((S)-2-(3-(2-hydroxyphenyl)cinnolin-6-yl)-8-azaspiro[4.5]decan-8-yl)isoxazol-5-yl)-3-methylbutanoyl)-N-((S)-1-(4-(4-methylthiazol-5-yl)phenyl)ethyl)pyrrolidine-2-carboxamide]",> 10,> 75,< 10,A (“A” indicates maximum degradation ≥75%)
"Cc1ncsc1-c1ccc([C@H](C)NC(=O)[C@@H]2C[C@@H](O)CN2C(=O)[C@@H](c2cc(N3C[C@H]4CN(c5ccc6cc(-c7ccccc7O)nnc6c5)C[C@H]4C3)no2)C(C)C)cc1 [Compound 131, (2S,4R)-4-hydroxy-1-((R)-2-(3-((3aR,6aS)-5-(3-(2-hydroxyphenyl)cinnolin-7-yl)hexahydropyrrolo[3,4-c]pyrrol-2(1H)-yl)isoxazol-5-yl)-3-methylbutanoyl)-N-((S)-1-(4-(4-methylthiazol-5-yl)phenyl)ethyl)pyrrolidine-2-carboxamide]",,> 50,< 10,A (“A” indicates maximum degradation ≥75%)
